Results: PubChem BioAssay (NCI)
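A five-concentration, 48-hour dose response in 96-well plates underlies each endpoint, interpolated linearly between surrounding concentrations. At the GI50, growth is halved. TGI marks complete inhibition of growth.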

Columns and labels:
Assay in all cases: NCI anticancer screen, dose series, 48 h
EKVX NSCLC = tested on: EKVX NSCLC
SW-620 colon = tested on: SW-620 colon
SK-OV-3 ovarian = tested on: SK-OV-3 ovarian
786-0 renal = tested on: 786-0 renal
LOX IMVI melanoma = tested on: LOX IMVI melanoma
CCRF-CEM leukemia = tested on: CCRF-CEM leukemia
SF-295 CNS = tested on: SF-295 CNS
RXF 393 renal = tested on: RXF 393 renal
SNB-19 CNS = tested on: SNB-19 CNS
DU-145 prostate = tested on: DU-145 prostate

Structure (SMILES) | GI50 (EKVX NSCLC) [µM] | TGI (EKVX NSCLC) [µM] | GI50 (SW-620 colon) [µM] | TGI (SW-620 colon) [µM] | GI50 (SK-OV-3 ovarian) [µM] | TGI (SK-OV-3 ovarian) [µM] | GI50 (786-0 renal) [µM] | TGI (786-0 renal) [µM] | GI50 (LOX IMVI melanoma) [µM] | TGI (LOX IMVI melanoma) [µM] | GI50 (CCRF-CEM leukemia) [µM] | TGI (CCRF-CEM leukemia) [µM] | GI50 (SF-295 CNS) [µM] | TGI (SF-295 CNS) [µM] | GI50 (RXF 393 renal) [µM] | TGI (RXF 393 renal) [µM] | GI50 (SNB-19 CNS) [µM] | TGI (SNB-19 CNS) [µM] | GI50 (DU-145 prostate) [µM] | TGI (DU-145 prostate) [µM]
CCn1c(-c2nonc2N)nc2c(C#CC(C)(C)O)ncc(OCC3CCNCC3)c21 | > 25 | > 25 | 10.1 | > 25 | 10.4 | > 25 | 6.11 | 24.6 | 7.04 | > 25 | 4.5 | > 25 | 5.29 | > 25 | 2.54 | 7.28 | 10.6 | > 25 | 8.15 | > 25
CO[C@H]1/C=C/C=C/C=C/C[C@H](OC(=O)[C@@H](C)NC(=O)C2CCCCC2)[C@H](C)[C@@H](O)/C(C)=C\CCC2=CC(=O)C=C(NC(=O)C1)C2=O | 0.174 | 2.25 | 0.179 | 3.63 | 0.187 | 1.83 | 0.177 | 1.32 | 0.104 | 0.547 | 0.114 | > 50 | 0.124 | 0.966 | 0.0945 | 0.346 | 0.106 | 0.563 | 0.127 | 1.4
CCN(Cc1cccc(C)c1)c1ccc(CO)c(Cl)c1 | 14.6 | 30 | 2.33 | 18 | 11.7 | 29.5 | 10.8 | 23.5 | 13.2 | 26.6 | 15.6 | 39.8 | 1.51 | 16.4 | 6.52 | 21.9 | 15.8 | 41 | 14.8 | 28.9
COc1ccc2c(c1)/C(=N/OC(C)=O)c1c-2c(Nc2ccc(/C(C)=N/OC(C)=O)cc2)nc2ccccc12 | 82.1 | > 100 | 36.5 | > 100 | 71.6 | > 100 | > 100 | > 100 | 29.1 | 63.5 | 23.9 | 47.4 | > 100 | > 100 | > 100 | > 100 | > 100 | > 100 | 43.2 | > 100
Cc1cccc(Cc2cnc(NC(=O)/C=C/c3ccco3)s2)c1 | 0.0581 | > 100 | 0.0385 | > 100 | 0.0465 | > 100 | 0.0598 | > 100 | 0.0683 | > 100 | 0.0433 | > 100 | 0.0437 | > 100 | 0.0221 | 0.0643 | 0.0488 | > 100 | 0.0382 | > 100
CCOC(=O)CCC(NC(=O)c1ccc(Nc2nc3cc(N)cc(N)c3nc2-c2ccccc2)cc1)C(=O)OCC (stereo not given) | > 53.8 | > 100 | 45.6 | > 100 | 22 | 47.7 | > 42.3 | > 60.9 | 25.4 | > 100 | 5.15 | > 100 | > 42 | > 66.3 | 43.4 | > 92.6 | > 46.4 | > 100 | 65.8 | > 100
CC[C@@]1(O)C(=O)N(CCN(C)C)Cc2c1cc1n(c2=O)Cc2cc3ccccc3nc2-1 | > 67.9 | > 100 | 34.6 | > 100 | > 100 | > 100 | 8.09 | > 100 | 6.19 | > 50.7 | 4.74 | > 100 | 5.63 | > 100 | 71.4 | > 100 | > 24.9 | > 100 | 4.64 | > 100
CCOC(=O)Nc1ccc2nc(Sc3ccc(Cl)cc3)sc2c1 | 8.28 | > 82.6 | 0.488 | > 100 | 4.8 | > 95 | 8.12 | 40.3 | 4.45 | 25.3 | 4 | > 100 | 2.19 | 33.9 | 2.99 | 18.8 | 7.31 | > 100 | 4.33 | > 48.5
CCN1CCN(c2nc(NNC(=O)c3cccc(OC)c3)nc(N3CCN(C(c4ccccc4)c4ccccc4)CC3)n2)CC1 | 2.46 | 12.3 | 1.75 | 3.45 | 2.72 | 7.08 | 1.84 | 3.58 | 1.62 | 2.97 | 2.6 | > 100 | 1.87 | 3.6 | 1.63 | 3.1 | 4.63 | 26.3 | 2.67 | 7.29
N#CSc1cc(-c2nc3ccccc3o2)ccc1N | 5 | 37.2 | 25.7 | > 86.2 | 76.5 | > 100 | 33.4 | 97.4 | 13.5 | 43.9 | 10.6 | 30.2 | 17.1 | > 74.1 | 0.965 | 26.3 | 59.7 | > 100 | > 67.7 | > 100
Cc1cncc2cccc(S(=O)(=O)N3CCCNC[C@@H]3C)c12 | 47.4 | > 100 | 8.06 | > 100 | 24 | > 100 | 14.6 | > 100 | 7.94 | 87 | 20.3 | > 100 | 4.46 | > 100 | 1.82 | 19.8 | 46.2 | > 100 | 36.1 | > 100
c1ccc(-c2nn(-c3ccccc3)[n+](-c3ccccc3-c3ccccc3)n2)cc1 | 0.687 | > 74.6 | 1.4 | > 73.1 | 1.29 | > 29.1 | 2.96 | 21.2 | 1.02 | 18.8 | 0.743 | 43.7 | 1.94 | 8.99 | 2.02 | 16.4 | 1.24 | > 80.7 | 3.11 | > 71.7
C=C(C)[C@@H]1CC[C@@H]2C(=CC[C@]3(C)C([C@H](C)CC/C=C(/C)C(=O)O)CC[C@@]23C)[C@@]1(C)CCC(=O)O (stereo not given in full) |  | > 100 |  | > 100 |  | > 100 |  | 43.9 |  | 37.8 |  | 53.7 |  | > 100 |  | 35.1 |  | > 100 |  | 60.5
COc1cc(C2CC(c3cc(Cl)c(C)cc3O)=NN2c2ccc(S(N)(=O)=O)cc2)cc(OC)c1OC (stereo not given) | 3.26 | 43.7 | 3.35 | 10.7 | 3.71 | 11.4 | 2.21 | 4.29 | 2.08 | 4.28 | 4.51 | > 100 | 1.8 | 3.96 | 2.9 | 6.02 | 4.61 | 23.9 | 3.4 | 11.2
O=C(O)c1ccccc1/C=C1/Nc2ccccc2C1=O |  | > 100 |  | > 100 |  | > 100 |  | > 100 |  | > 100 |  | > 100 |  | > 100 |  | > 100 |  | > 100 |  | > 100
